Measured values from patent publication US20250270170A1, “2,3-DIMETHOXY-5-METHYL-1,4-BENZOQUINONE ALKYL ALCOHOL DERIVATIVE AND USE THEREOF” (BEIJING ANJIANXI BIO-MEDICAL TECHNOLOGY CO., LTD., priority 2021, published 2025).
Marks after values point to notes of the source that are not given here.

Tests used:
[1] = system: human gastric cancer NCI-N87 transplanted tumor; test: Example 7: tumor growth in NCI-N87 transplanted tumor model, alone and combined with DDP; format: in vivo, nude mice
A549 cells = test: Colony formation assay, A549; format: cell-based, human; conditions: 50 μM and 150 μM vs 0 μM, about 2 weeks
Procedure: (1) The cell status was observed under a microscope. Cells in the logarithmic growth phase were selected and digested to make a cell suspension. 20 μl of the cell suspension was taken with a pipette and added to the CountStar disposable cell counting plate for cell counting, and the counting results were recorded.
(2) A 6-well culture plate was used for colony formation assay. Approximately 1,000 cells were inoculated into each well, and the complete culture medium was added to make up the volume to 2.5 ml per well. The cells were shaked in a figure-8 pattern to disperse the cells evenly. The next day, the compound of formula (I) at different concentrations (0 μM, 50 μM, and 150 μM) were added to the corresponding wells according to the assay plan, and incubated in an incubator at 37° C. with 5% CO2 for about 2 weeks. The culture was terminated when visible colonies appeared.
(3) The culture plate was taken out, and the old culture medium was discarded. The cells were gently washed twice with PBS.
(4) 500 μl of 4% paraformaldehyde fixative was added to each well to fix the cells at room temperature for 15 minutes, and then the fixative was discarded.
(5) 500 μl of 0.1% crystal violet solution was added to each well, and cells were stained at room temperature for at least 15 minutes. The crystal violet was discarded, and the staining solution was slowly washed away with running water. […]

NCI-H460 cells = test: Flow cytometry for cell cycle detection, NCI-H460; format: cell-based, human
Procedure: (1) Cells were inoculated in a 6-well plate. When about 50% of the cells were adherent and fused, the compound of formula (I) at a concentration of 0 μM, 10 μM, 30 μM, and 90 μM were added, respectively. The plate was placed in an incubator at 37° C. with 5% CO2 to continue culturing, and three time points were set, which were 24 h, 48 h and 72 h, respectively.
(2) After reaching the designated time point, the cell culture plate was taken out from the incubator, and placed in a biological safety cabinet. A 4 ml centrifuge tube was taken and marked. The supernatant in each well was pipetted out and added to the corresponding 4 ml centrifuge tube. The cells were gently washed with PBS, and the PBS was added to the corresponding centrifuge tube. An appropriate amount of trypsin was added to each well to digest the cells. When the cells were digested to a moderate degree, the old culture medium from the centrifuge tube was added to the corresponding well. The cells were gently pipetted with apipette to form a single-cell suspension, which was pipetted back into the original centrifuge tube. The tube was immediately centrifuged at 1500 rpm for 5 minutes. Then, the supernatant was discarded and the precipitate was retained.
(3) 2 ml of pre-chilled PBS was added to the centrifuge tube, and centrifuged again at 1500 rpm for 5 minutes. The supernatant was discarded, and the cell debris was removed.
(4) 1 ml of 75% ethanol was added while pipetting the cells, to make the cells appear as single as possible. Then, the cells were fixed at 4° C. overnight or stored at −20° C. for long-term storage (can be stored for 1 week).
(5) The fixed cells were taken out, and centrifuged at 1000 rpm for 5 minutes. The ethanol was discarded, and pre-chilled PBS was added to wash the cells. Then, the cells were centrifuged at 1000 rpm for 5 min to remove the residual ethanol on the cells.
(6) A cell cycle detection kit from Wuhan Promoter Biology Co., Ltd. was used. 100 μl of RNaseA was added, and incubated in a 37° C. water bath for 30 minutes.
(7) 400 μl of PI was added and mixed well, and incubated at 4° C. in dark for 30 minutes.
(8) The cell cycle was detected by upflow cytometry.

N.N.[Cl][Pt][Cl] [DDP, cisplatin]
Mean tumor volume ([1]; D12, DDP 4/2/1/4 mg/kg IP): 155 ± 6 mm^3
Mean tumor volume ([1]; D16, DDP 4/2/1/4 mg/kg IP): 241 ± 6 mm^3
tumor growth inhibition rate (TGI) ([1]; D16, DDP 4/2/1/4 mg/kg IP): 15%
Mean tumor volume ([1]; D19, DDP 4/2/1/4 mg/kg IP): 294 ± 6* mm^3
tumor growth inhibition rate (TGI) ([1]; D19, DDP 4/2/1/4 mg/kg IP): 18%
Mean tumor volume ([1]; D23, DDP 4/2/1/4 mg/kg IP): 341 ± 13** mm^3
tumor growth inhibition rate (TGI) ([1]; D23, DDP 4/2/1/4 mg/kg IP): 28%
Mean tumor volume ([1]; D26, DDP 4/2/1/4 mg/kg IP): 419 ± 22** mm^3
tumor growth inhibition rate (TGI) ([1]; D26, DDP 4/2/1/4 mg/kg IP): 34%
Mean tumor volume ([1]; D30, DDP 4/2/1/4 mg/kg IP): 543 ± 32** mm^3
tumor growth inhibition rate (TGI) ([1]; D30, DDP 4/2/1/4 mg/kg IP): 40%
Mean tumor volume ([1]; D33, DDP 4/2/1/4 mg/kg IP): 642 ± 35** mm^3
tumor growth inhibition rate (TGI) ([1]; D33, DDP 4/2/1/4 mg/kg IP): 39%
Mean tumor volume ([1]; D37, DDP 4/2/1/4 mg/kg IP): 810 ± 61* mm^3
tumor growth inhibition rate (TGI) ([1]; D37, DDP 4/2/1/4 mg/kg IP): 36%
Mean tumor volume ([1]; D40, DDP 4/2/1/4 mg/kg IP): 911 ± 80* mm^3
tumor growth inhibition rate (TGI) ([1]; D40, DDP 4/2/1/4 mg/kg IP): 36%
Mean tumor volume ([1]; D44, DDP 4/2/1/4 mg/kg IP): 1035 ± 95* mm^3
tumor growth inhibition rate (TGI) ([1]; D44, DDP 4/2/1/4 mg/kg IP): 35%

COC1=C(OC)C(=O)C(CCCCCCCCCCOC(=O)Cc2c(C)n(C(=O)c3ccc(Cl)cc3)c3ccc(OC)cc23)=C(C)C1=O [compound of formula (I)]
colony-forming ability (A549 cells): decreased significantly
proportion of S phase cells (NCI-H460 cells; 10 μM, 24 h): 26.03%
proportion of S phase cells (NCI-H460 cells; 10 μM, 48 h): 29.62%
proportion of S phase cells (NCI-H460 cells; 10 μM, 72 h): 21.61%
proportion of S phase cells (NCI-H460 cells; 30 μM, 24 h): 13.15%
proportion of S phase cells (NCI-H460 cells; 30 μM, 48 h): 16.02%
proportion of S phase cells (NCI-H460 cells; 30 μM, 72 h): 20.98%
proportion of S phase cells (NCI-H460 cells; 90 μM, 24 h): 9.76%
proportion of S phase cells (NCI-H460 cells; 90 μM, 48 h): 0.97%
proportion of S phase cells (NCI-H460 cells; 90 μM, 72 h): 3.36%
Mean tumor volume ([1]; D12, R01 16 mg/kg PO QD×32): 155 ± 4 mm^3
Mean tumor volume ([1]; D16, R01 16 mg/kg PO QD×32): 200 ± 6** mm^3
tumor growth inhibition rate (TGI) ([1]; D16, R01 16 mg/kg PO QD×32): 29%
Mean tumor volume ([1]; D19, R01 16 mg/kg PO QD×32): 263 ± 14** mm^3
tumor growth inhibition rate (TGI) ([1]; D19, R01 16 mg/kg PO QD×32): 27%
Mean tumor volume ([1]; D23, R01 16 mg/kg PO QD×32): 336 ± 18** mm^3
tumor growth inhibition rate (TGI) ([1]; D23, R01 16 mg/kg PO QD×32): 30%
Mean tumor volume ([1]; D26, R01 16 mg/kg PO QD×32): 421 ± 26** mm^3
tumor growth inhibition rate (TGI) ([1]; D26, R01 16 mg/kg PO QD×32): 33%
Mean tumor volume ([1]; D30, R01 16 mg/kg PO QD×32): 509 ± 46** mm^3
tumor growth inhibition rate (TGI) ([1]; D30, R01 16 mg/kg PO QD×32): 43%
Mean tumor volume ([1]; D33, R01 16 mg/kg PO QD×32): 577 ± 52** mm^3
tumor growth inhibition rate (TGI) ([1]; D33, R01 16 mg/kg PO QD×32): 45%
Mean tumor volume ([1]; D37, R01 16 mg/kg PO QD×32): 681 ± 63** mm^3
tumor growth inhibition rate (TGI) ([1]; D37, R01 16 mg/kg PO QD×32): 46%
Mean tumor volume ([1]; D40, R01 16 mg/kg PO QD×32): 758 ± 74** mm^3
tumor growth inhibition rate (TGI) ([1]; D40, R01 16 mg/kg PO QD×32): 47%
Mean tumor volume ([1]; D44, R01 16 mg/kg PO QD×32): 871 ± 94** mm^3
tumor growth inhibition rate (TGI) ([1]; D44, R01 16 mg/kg PO QD×32): 45%
effect on growth of the NCI-N87 transplanted tumor (summary) ([1]; R01 alone 16 mg/kg QD, combinations: R01 3, 6, 16 mg/kg (QD) with DDP): significant inhibitory effect
